Laboratory results: ChEMBL document CHEMBL3991601, “The target landscape of clinical kinase drugs” (Science, 2017)
The source made the active and inactive calls.

molecular target: T1, STE20-related kinase adapter protein alpha (Homo sapiens, UniProt Q7RTN6)
T1 sequence (Q7RTN6 whole entry): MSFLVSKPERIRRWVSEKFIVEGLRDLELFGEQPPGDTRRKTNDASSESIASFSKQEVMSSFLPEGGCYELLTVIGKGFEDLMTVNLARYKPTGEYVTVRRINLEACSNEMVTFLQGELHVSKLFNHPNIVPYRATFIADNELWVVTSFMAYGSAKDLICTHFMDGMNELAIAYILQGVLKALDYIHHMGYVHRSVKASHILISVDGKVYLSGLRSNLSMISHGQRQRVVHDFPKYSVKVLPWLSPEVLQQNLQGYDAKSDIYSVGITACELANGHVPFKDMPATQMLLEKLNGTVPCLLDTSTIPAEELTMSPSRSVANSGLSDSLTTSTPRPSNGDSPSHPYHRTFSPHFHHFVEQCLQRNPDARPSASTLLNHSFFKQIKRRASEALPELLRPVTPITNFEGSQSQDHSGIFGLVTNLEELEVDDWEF
Further: in the data inactive means no Kd found up to 30 µM.

Compound | Kd
Cc1ccc(NC(=O)c2ccc(CN3CC[C@H](N(C)C)C3)c(C(F)(F)F)c2)cc1Nc1nccc(-c2cncnc2)n1 [BAFETINIB] | > 30 µM (inactive)
CCS(=O)(=O)N1CC(CC#N)(n2cc(-c3ncnc4[nH]ccc34)cn2)C1 [BARICITINIB] | > 30 µM (inactive)
Cc1nc(N)sc1-c1ccnc(Nc2ccc(N3CCOCC3)cc2)n1 [CYC-116] | > 30 µM (inactive)
CN1CCN(c2ccc3nc(-c4c(N)c5c(F)cccc5[nH]c4=O)[nH]c3c2)CC1 [DOVITINIB] | > 30 µM (inactive)
Cc1cc(Nc2cc(N3CCN(C)CC3)nc(/C=C/c3ccccc3)n2)n[nH]1 [ENMD-2076] | > 30 µM (inactive)

molecular target: Serine/threonine-protein kinase/endoribonuclease IRE2 (Homo sapiens, UniProt Q76MJ5)
Sequence (Q76MJ5 whole entry): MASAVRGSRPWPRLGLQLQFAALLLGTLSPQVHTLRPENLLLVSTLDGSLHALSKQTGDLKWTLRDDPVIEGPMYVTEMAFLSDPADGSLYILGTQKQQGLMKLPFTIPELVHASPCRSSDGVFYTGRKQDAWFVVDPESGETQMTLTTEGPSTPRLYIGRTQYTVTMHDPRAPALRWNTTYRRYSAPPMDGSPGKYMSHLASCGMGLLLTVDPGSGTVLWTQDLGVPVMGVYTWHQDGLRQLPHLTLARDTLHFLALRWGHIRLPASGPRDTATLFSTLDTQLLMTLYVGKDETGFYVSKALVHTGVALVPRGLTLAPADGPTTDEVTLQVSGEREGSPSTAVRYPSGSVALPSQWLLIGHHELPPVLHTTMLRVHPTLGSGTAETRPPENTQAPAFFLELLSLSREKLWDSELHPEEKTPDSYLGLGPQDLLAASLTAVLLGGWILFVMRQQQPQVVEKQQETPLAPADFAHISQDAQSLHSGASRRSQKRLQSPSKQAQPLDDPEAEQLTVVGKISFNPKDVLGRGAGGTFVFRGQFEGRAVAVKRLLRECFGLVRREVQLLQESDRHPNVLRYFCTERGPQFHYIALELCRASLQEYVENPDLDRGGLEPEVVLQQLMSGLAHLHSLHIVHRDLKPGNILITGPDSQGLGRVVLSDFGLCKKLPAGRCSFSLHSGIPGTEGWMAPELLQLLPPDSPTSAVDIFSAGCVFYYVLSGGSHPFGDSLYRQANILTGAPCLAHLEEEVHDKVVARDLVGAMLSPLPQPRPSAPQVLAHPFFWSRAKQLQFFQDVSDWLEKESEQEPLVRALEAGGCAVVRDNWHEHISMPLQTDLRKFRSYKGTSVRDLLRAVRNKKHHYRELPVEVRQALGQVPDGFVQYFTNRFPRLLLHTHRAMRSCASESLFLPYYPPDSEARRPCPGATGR

Compound | Kd
Cc1ccc(NC(=O)c2ccc(CN3CC[C@H](N(C)C)C3)c(C(F)(F)F)c2)cc1Nc1nccc(-c2cncnc2)n1 [BAFETINIB] | > 30 µM (inactive)
CCS(=O)(=O)N1CC(CC#N)(n2cc(-c3ncnc4[nH]ccc34)cn2)C1 [BARICITINIB] | > 30 µM (inactive)
Cc1nc(N)sc1-c1ccnc(Nc2ccc(N3CCOCC3)cc2)n1 [CYC-116] | > 30 µM (inactive)
CN1CCN(c2ccc3nc(-c4c(N)c5c(F)cccc5[nH]c4=O)[nH]c3c2)CC1 [DOVITINIB] | > 30 µM (inactive)
Cc1cc(Nc2cc(N3CCN(C)CC3)nc(/C=C/c3ccccc3)n2)n[nH]1 [ENMD-2076] | > 30 µM (inactive)

molecular target: S-adenosylmethionine synthase isoform type-2 (Homo sapiens, UniProt P31153)
Sequence (P31153 whole entry, canonical isoform): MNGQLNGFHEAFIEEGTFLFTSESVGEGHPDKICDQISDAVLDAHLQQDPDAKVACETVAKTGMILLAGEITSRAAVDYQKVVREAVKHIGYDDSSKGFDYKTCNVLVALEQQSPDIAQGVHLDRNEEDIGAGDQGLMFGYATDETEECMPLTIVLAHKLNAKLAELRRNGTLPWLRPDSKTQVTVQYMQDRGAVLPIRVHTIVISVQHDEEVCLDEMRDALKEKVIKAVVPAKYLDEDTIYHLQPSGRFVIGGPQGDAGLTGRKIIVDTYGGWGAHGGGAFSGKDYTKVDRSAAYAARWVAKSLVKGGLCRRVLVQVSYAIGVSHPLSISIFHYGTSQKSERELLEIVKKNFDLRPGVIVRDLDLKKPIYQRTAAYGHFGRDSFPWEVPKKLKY

Compound | Kd
CCS(=O)(=O)N1CC(CC#N)(n2cc(-c3ncnc4[nH]ccc34)cn2)C1 [BARICITINIB] | > 30 µM (inactive)
Cc1nc(N)sc1-c1ccnc(Nc2ccc(N3CCOCC3)cc2)n1 [CYC-116] | > 30 µM (inactive)
Cc1cc(Nc2cc(N3CCN(C)CC3)nc(/C=C/c3ccccc3)n2)n[nH]1 [ENMD-2076] | > 30 µM (inactive)

molecular target: T2, Phosphatidylinositol 5-phosphate 4-kinase type-2 gamma (Homo sapiens, UniProt Q8TBX8)
T2 sequence (Q8TBX8 whole entry): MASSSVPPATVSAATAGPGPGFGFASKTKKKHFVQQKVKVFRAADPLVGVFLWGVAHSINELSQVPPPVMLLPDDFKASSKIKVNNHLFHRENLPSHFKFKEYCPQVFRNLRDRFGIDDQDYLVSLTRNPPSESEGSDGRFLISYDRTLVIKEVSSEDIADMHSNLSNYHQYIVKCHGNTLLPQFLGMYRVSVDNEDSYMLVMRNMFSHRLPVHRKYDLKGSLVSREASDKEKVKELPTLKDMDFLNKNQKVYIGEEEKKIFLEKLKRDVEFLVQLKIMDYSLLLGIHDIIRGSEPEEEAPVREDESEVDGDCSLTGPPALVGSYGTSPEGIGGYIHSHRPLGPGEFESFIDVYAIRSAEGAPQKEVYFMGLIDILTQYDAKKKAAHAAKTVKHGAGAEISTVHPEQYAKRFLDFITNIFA

Compound | Kd
Cc1ccc(NC(=O)c2ccc(CN3CC[C@H](N(C)C)C3)c(C(F)(F)F)c2)cc1Nc1nccc(-c2cncnc2)n1 [BAFETINIB] | 6.18 µM
CCS(=O)(=O)N1CC(CC#N)(n2cc(-c3ncnc4[nH]ccc34)cn2)C1 [BARICITINIB] | > 30 µM (inactive)
Cc1nc(N)sc1-c1ccnc(Nc2ccc(N3CCOCC3)cc2)n1 [CYC-116] | 0.067 µM (active)
Cc1cc(Nc2cc(N3CCN(C)CC3)nc(/C=C/c3ccccc3)n2)n[nH]1 [ENMD-2076] | > 30 µM (inactive)

molecular target: RAC-alpha serine/threonine-protein kinase (Homo sapiens, UniProt P31749)
Sequence (P31749 whole entry): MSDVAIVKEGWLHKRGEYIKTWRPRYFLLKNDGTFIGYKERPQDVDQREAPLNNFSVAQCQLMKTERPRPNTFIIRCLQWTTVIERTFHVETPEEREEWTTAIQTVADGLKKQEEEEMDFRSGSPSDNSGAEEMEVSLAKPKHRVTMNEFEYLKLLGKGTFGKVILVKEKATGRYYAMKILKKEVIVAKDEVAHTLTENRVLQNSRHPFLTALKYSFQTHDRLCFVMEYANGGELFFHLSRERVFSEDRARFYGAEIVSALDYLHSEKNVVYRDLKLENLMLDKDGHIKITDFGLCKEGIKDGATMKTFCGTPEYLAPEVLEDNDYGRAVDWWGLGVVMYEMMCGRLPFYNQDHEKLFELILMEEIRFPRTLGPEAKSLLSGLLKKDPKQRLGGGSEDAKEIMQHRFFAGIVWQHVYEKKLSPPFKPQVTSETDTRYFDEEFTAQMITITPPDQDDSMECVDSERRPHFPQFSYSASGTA

Compound | Kd
Cc1ccc(NC(=O)c2ccc(CN3CC[C@H](N(C)C)C3)c(C(F)(F)F)c2)cc1Nc1nccc(-c2cncnc2)n1 [BAFETINIB] | > 30 µM (inactive)
CCS(=O)(=O)N1CC(CC#N)(n2cc(-c3ncnc4[nH]ccc34)cn2)C1 [BARICITINIB] | > 30 µM (inactive)

molecular target: Tyrosine-protein kinase JAK1 (Homo sapiens, UniProt P23458)
Sequence (P23458 whole entry): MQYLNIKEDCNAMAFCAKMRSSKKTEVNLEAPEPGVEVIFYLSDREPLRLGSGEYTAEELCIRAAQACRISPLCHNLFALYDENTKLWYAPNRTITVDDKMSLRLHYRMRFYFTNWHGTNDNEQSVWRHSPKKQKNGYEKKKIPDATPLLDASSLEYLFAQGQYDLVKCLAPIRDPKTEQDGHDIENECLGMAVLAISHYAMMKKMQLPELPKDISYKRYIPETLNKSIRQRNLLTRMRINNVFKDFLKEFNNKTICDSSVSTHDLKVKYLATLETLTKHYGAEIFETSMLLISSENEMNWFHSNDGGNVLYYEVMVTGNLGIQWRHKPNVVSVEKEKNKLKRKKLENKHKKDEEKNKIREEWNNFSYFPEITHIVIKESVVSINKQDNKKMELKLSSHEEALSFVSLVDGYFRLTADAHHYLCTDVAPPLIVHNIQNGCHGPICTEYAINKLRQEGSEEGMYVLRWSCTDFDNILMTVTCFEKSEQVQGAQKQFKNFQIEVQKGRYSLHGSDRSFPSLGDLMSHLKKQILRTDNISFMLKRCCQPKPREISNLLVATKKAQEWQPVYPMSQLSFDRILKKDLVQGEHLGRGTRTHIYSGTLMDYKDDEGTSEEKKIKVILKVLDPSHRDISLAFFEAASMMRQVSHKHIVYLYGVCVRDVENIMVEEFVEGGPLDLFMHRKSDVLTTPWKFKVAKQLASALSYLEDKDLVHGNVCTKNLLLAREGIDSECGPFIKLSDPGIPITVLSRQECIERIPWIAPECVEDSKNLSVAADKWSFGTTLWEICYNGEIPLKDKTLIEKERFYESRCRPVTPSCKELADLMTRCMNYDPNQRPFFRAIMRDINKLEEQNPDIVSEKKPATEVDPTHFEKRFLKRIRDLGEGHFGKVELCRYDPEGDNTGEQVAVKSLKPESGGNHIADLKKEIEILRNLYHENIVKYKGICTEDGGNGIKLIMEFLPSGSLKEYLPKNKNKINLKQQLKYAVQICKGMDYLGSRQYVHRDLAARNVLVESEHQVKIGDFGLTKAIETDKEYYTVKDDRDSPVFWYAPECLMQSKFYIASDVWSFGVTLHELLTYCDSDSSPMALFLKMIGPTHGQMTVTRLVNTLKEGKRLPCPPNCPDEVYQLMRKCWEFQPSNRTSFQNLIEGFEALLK

Compound | Kd
Cc1ccc(NC(=O)c2ccc(CN3CC[C@H](N(C)C)C3)c(C(F)(F)F)c2)cc1Nc1nccc(-c2cncnc2)n1 [BAFETINIB] | > 30 µM (inactive)
Cc1nc(N)sc1-c1ccnc(Nc2ccc(N3CCOCC3)cc2)n1 [CYC-116] | 5.39 µM (active)
Cc1cc(Nc2cc(N3CCN(C)CC3)nc(/C=C/c3ccccc3)n2)n[nH]1 [ENMD-2076] | > 30 µM (inactive)

molecular target: T3, Non-receptor tyrosine-protein kinase TNK1 (Homo sapiens, UniProt Q13470)
T3 sequence (Q13470 whole entry): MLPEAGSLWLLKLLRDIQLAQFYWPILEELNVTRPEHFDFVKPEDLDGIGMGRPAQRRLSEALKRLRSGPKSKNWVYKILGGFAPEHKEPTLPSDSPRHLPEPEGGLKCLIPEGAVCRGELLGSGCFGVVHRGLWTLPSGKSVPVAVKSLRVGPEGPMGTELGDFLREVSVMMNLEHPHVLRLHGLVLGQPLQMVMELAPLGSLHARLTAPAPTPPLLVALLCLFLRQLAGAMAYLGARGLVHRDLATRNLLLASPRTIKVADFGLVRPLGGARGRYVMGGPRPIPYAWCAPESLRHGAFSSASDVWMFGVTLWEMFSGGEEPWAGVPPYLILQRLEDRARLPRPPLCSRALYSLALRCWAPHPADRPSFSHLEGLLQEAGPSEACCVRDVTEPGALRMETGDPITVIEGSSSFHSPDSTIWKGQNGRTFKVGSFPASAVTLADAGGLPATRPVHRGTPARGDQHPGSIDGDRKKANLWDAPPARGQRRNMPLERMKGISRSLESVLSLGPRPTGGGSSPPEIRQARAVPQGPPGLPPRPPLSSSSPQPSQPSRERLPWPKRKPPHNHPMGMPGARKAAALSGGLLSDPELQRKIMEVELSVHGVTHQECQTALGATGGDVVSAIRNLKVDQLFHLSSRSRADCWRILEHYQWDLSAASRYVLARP

Compound | Kd
Cc1ccc(NC(=O)c2ccc(CN3CC[C@H](N(C)C)C3)c(C(F)(F)F)c2)cc1Nc1nccc(-c2cncnc2)n1 [BAFETINIB] | > 30 µM (inactive)
CCS(=O)(=O)N1CC(CC#N)(n2cc(-c3ncnc4[nH]ccc34)cn2)C1 [BARICITINIB] | 0.622 µM
Cc1nc(N)sc1-c1ccnc(Nc2ccc(N3CCOCC3)cc2)n1 [CYC-116] | > 30 µM (inactive)

molecular target: T4, Bone morphogenetic protein receptor type-2 (Homo sapiens, UniProt Q13873)
T4 sequence (Q13873 whole entry): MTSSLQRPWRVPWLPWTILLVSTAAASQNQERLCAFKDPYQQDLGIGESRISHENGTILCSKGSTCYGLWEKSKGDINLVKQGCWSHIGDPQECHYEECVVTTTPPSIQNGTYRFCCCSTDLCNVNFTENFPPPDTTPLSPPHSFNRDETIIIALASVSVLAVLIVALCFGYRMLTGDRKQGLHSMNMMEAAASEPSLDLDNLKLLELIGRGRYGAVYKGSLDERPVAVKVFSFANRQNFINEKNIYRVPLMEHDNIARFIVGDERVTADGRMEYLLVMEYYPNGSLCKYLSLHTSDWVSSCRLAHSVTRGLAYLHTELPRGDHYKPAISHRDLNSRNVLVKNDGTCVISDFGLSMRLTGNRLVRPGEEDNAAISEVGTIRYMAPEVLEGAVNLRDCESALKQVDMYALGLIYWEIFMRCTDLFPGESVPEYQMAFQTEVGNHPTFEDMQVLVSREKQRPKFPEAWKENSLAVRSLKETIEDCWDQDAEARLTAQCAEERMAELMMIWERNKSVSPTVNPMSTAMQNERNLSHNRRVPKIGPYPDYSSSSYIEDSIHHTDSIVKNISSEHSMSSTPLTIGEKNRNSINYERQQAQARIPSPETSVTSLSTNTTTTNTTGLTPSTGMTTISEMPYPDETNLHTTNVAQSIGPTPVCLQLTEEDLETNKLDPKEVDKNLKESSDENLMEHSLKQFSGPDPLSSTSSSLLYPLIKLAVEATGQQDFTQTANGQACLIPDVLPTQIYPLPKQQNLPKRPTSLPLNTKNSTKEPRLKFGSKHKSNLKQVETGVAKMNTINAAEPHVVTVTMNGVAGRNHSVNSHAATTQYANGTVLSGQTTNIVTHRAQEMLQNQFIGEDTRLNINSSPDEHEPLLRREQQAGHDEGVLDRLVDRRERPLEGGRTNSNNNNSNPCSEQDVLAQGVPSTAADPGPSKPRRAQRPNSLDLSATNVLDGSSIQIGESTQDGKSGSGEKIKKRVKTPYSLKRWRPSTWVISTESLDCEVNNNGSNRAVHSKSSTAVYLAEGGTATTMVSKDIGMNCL

Compound | Kd
Cc1ccc(NC(=O)c2ccc(CN3CC[C@H](N(C)C)C3)c(C(F)(F)F)c2)cc1Nc1nccc(-c2cncnc2)n1 [BAFETINIB] | > 30 µM (inactive)
CCS(=O)(=O)N1CC(CC#N)(n2cc(-c3ncnc4[nH]ccc34)cn2)C1 [BARICITINIB] | > 30 µM (inactive)
